Measured values reported in publication PMC5706701, “Development of a homogenous high-throughput assay for inositol hexakisphosphate kinase 1 activity” (PLoS ONE, 2017).
Structures can show the parent of a compound that is named as a salt. Where two headings read alike, the source gives them in different places. Where a SMILES comes first, the peptide text is derived from it. The star is where a group is joined. Cbz = O=C(OCc1ccccc1)*

Target: T1, Human IP6K1 (Homo sapiens, UniProt Q92551)
T1 construct: GST (N, cleaved yes); made in house; host or cells: C43 E. coli, pGEX-6P-2
T1 sequence (Q92551 whole entry): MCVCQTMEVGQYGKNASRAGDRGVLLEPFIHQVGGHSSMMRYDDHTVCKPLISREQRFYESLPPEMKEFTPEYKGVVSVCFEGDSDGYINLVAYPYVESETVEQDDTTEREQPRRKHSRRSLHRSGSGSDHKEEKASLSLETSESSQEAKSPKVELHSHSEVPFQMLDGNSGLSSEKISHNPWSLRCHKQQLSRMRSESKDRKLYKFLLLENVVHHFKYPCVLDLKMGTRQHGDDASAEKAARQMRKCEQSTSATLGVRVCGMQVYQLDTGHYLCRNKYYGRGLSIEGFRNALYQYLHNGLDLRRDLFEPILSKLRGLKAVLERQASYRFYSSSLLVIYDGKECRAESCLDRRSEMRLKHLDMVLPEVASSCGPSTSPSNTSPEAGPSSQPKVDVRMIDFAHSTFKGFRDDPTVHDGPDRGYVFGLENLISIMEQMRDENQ
Assay: IP6K1 high-throughput screen of the Sigma LOPAC (ADP-Glo Max, single point);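 also: final compound concentration 10µM in 5% DMSO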
Assay type: biochemical

[1] = Sigma LOPAC single-point screen, ADP-Glo Max raw signal per well
[2] = Sigma LOPAC single-point screen, Z-score from plate average and StDev
[3] = LOPAC single-point screen, ADP-Glo Max raw signal per well
[4] = LOPAC single-point screen, Z-score from raw signal with plate average and StDev
[5] = LOPAC single-point screen, ADP-Glo Max luminescence raw signal per well
[6] = LOPAC single-point screen, Z-score relative to plate average and StDev
[7] = LOPAC single-point screen, Z-score against plate average and StDev
[8] = LOPAC single-point screen, Z-score from plate average and StDev

In the case of `COc1ccccc1N1CCN(CCCNc2c(C)c(=O)n(C)c(=O)n2C)CC1` [Urapidil, 5-Methyl-], the “Raw Signal” value [1] is reported as 62058 and the Z-score [2] is reported as 1.172.

With `CC(=O)O.NC(=NCCC[C@H](N)C(=O)O)NO` [NG-Hydroxy-L-arginine acetate] the “Raw Signal” value [3] was 53960 and the Z-score [4] was -0.2451.

`C[C@](N)(CCP(=O)(O)O)C(=O)O.Cl` [(S)-MAP4 hydrochloride] was tested, and the “Raw Signal” value [3] was 53240 and the Z-score [4] was -0.1938.

`C#CC(N)CCC(=O)O` (stereo not drawn) [gamma-Acetylinic GABA] was tested, and the “Raw Signal” value [5] was 54991 and the Z-score [6] was -0.5147.

In the case of `O=C(O)c1cc(=O)c2ccccc2[nH]1` [Kynurenic acid], the “Raw Signal” value [3] is reported as 53243 and the Z-score [4] is reported as -0.1933.

In the case of `C[C@]12CCC(=O)C(O)=C1CC[C@@H]1[C@@H]2CC[C@]2(C)C(=O)CC[C@@H]12` [4-Androsten-4-ol-3,17-dione], the “Raw Signal” value [5] is reported as 53811 and the Z-score [6] is reported as -0.7225.

With `O=C(O)C1CCNCC1` [Isonipecotic acid] the “Raw Signal” value [3] was 51826 and the Z-score [4] was -0.4314.

`CN1CCc2cccc3c2[C@H]1Cc1ccc(O)c(O)c1-3` [Apomorphine hydrochloride hemihydrate] was tested, and the “Raw Signal” value [5] was 53248 and the Z-score [6] was -0.8217.

In the case of `Br.CO[C@H]1CC=C2CCN3CCC4=C(CC(=O)OC4)[C@]23C1` [Dihydro-beta-erythroidine hydrobromide], the “Raw Signal” value [5] is reported as 51044 and the Z-score [6] is reported as -0.8373.

With `CC1CNCCN1S(=O)(=O)c1cccc2cnccc12.Cl.Cl` (stereo not drawn) the “Raw Signal” value [3] was 52932 and the Z-score [4] was -0.2456.

With `COc1ccccc1CNCCCCCCNCCCCCCCCNCCCCCCNCc1ccccc1OC.Cl.Cl.Cl.Cl` [Methoctramine tetrahydrochloride] the “Raw Signal” value [1] was 56889 and the Z-score [2] was 0.4193.

`NC(=O)CC[C@H](N)C(=O)O` [L-Glutamine] was tested, and the “Raw Signal” value [1] was 57892 and the Z-score [2] was 0.5534.

`O=c1c(-c2ccc(O)cc2)coc2cc(O)cc(O)c12` [Genistein] was tested, and the “Raw Signal” value [3] was 53223 and the Z-score [4] was -0.3948.

In the case of `CCCC1O[C@@H]2C[C@H]3[C@@H]4CCC5=CC(=O)C=C[C@]5(C)[C@H]4[C@@H](O)C[C@]3(C)[C@]2(C(=O)CO)O1` (stereo partly drawn) [Budesonide], the “Raw Signal” value [5] is reported as 54430 and the Z-score [6] is reported as -0.6135.

In the case of `Cc1cc(C(C)(C)C)c(O)c(C)c1CC1=NCCN1` [Oxymetazoline hydrochloride], the “Raw Signal” value [3] is reported as 52488 and the Z-score [4] is reported as -0.3202.

For `COc1cc(CCN)ccc1O.Cl`, the “Raw Signal” value [3] was 53513 and the Z-score [4] was -0.1479.

With `CCN1CCC[C@H]1CNC(=O)c1c(OC)ccc(I)c1O` [S(-)-IBZM] the “Raw Signal” value [5] was 51122 and the Z-score [6] was -0.5497.

In the case of `Cl.Cl.NCCNS(=O)(=O)c1cccc2cnccc12` [H-9 dihydrochloride], the “Raw Signal” value [1] is reported as 64375 and the Z-score [2] is reported as 1.138.

In the case of `Cc1nccc2c1[nH]c1ccccc12` [Harmane], the “Raw Signal” value [5] is reported as 51802 and the Z-score [6] is reported as -0.6834.

In the case of `C=CC[C@H](N)C(=O)O` [L-allylglycine], the “Raw Signal” value [3] is reported as 58984 and the Z-score [7] is reported as 0.1886.

For `CCOC(=O)Nc1ccc(NCc2ccc(F)cc2)nc1N` [Flupirtine maleate], the “Raw Signal” value [3] was 54811 and the Z-score [7] was -0.07231.

`CC(COc1ccccc1)N(CCCl)Cc1ccccc1` (stereo not drawn) [Phenoxybenzamine hydrochloride] was tested, and the “Raw Signal” value [1] was 61919 and the Z-score [2] was 0.7056.

With `CN1CCN(CCCN2c3ccccc3Sc3ccc(C(F)(F)F)cc32)CC1` [Trifluoperazine dihydrochloride] the “Raw Signal” value [1] was 58037 and the Z-score [2] was 0.3911.

`COc1ccccc1N1CCN(CCCCNC(=O)c2ccc3ccccc3c2)CC1` [BP 897] was tested, and the “Raw Signal” value [1] was 60942 and the Z-score [2] was 0.5335.

`COc1cc(C[C@@H](C)N)c(OC)cc1I.Cl` [( R)-(-)-DOI hydrochloride] was tested, and the “Raw Signal” value [3] was 54807 and the Z-score [7] was -0.07312.

In the case of `Cc1nnc2ccc(-c3cccc(C(F)(F)F)c3)nn12`, the “Raw Signal” value [3] is reported as 54310 and the Z-score [7] is reported as -0.01403.

`O=C(CCCN1CC=C(n2c(=O)[nH]c3ccccc32)CC1)c1ccc(F)cc1` [Droperidol] was tested, and the “Raw Signal” value [5] was 49359 and the Z-score [6] was -1.18.

In the case of `CCNC(=O)[C@H]1O[C@@H](n2cnc3c(N)ncnc32)[C@H](O)[C@@H]1O` [5 -N-Ethylcarboxamidoadenosine], the “Raw Signal” value [3] is reported as 52988 and the Z-score [4] is reported as -0.4425.

`O=P(O)(O)C(Cl)(Cl)P(=O)(O)O` [Clodronic acid] was tested, and the “Raw Signal” value [3] was 56368 and the Z-score [7] was 0.2439.

In the case of `CN1CCN(CC/C=C2/c3ccccc3Sc3ccc(S(=O)(=O)N(C)C)cc32)CC1.Cl` [Thiothixene hydrochloride], the “Raw Signal” value [5] is reported as 52919 and the Z-score [6] is reported as -0.6032.

In the case of `CC(C)CN(C)c1nc(N)c(C(=O)N=C(N)N)nc1Cl` [5-(N-Methyl-N-isobutyl)amiloride], the “Raw Signal” value [3] is reported as 57481 and the Z-score [7] is reported as -0.0761.

In the case of `CNCCC(Oc1ccccc1OC)c1ccccc1` (stereo not drawn) [Nisoxetine hydrochloride], the “Raw Signal” value is reported as 55675 and the Z-score is reported as 0.2153.

`Nc1nc(Cl)nc2c1ncn2C1OC(CO)C(O)C1O` (stereo not drawn) [2-Chloroadenosine] was tested, and the “Raw Signal” value [3] was 58125 and the Z-score [7] was 0.03732.

`Nc1nc(O)c2ncn(COC(CO)CO)c2n1` [Ganciclovir] was tested, and the “Raw Signal” value [1] was 57228 and the Z-score [2] was 0.4186.

In the case of `CN(C)CCOC(=O)COc1ccc(Cl)cc1` [Centrophenoxine hydrochloride], the “Raw Signal” value [5] is reported as 69002 and the Z-score [8] is reported as 1.953.

For `O=C1C=CC(=O)C=C1` [p-Benzoquinone], the “Raw Signal” value [5] was 51681 and the Z-score [6] was -1.098.

With `CN(C)CCOC(C)(c1ccccc1)c1ccccn1` (stereo not drawn) [Doxylamine succinate] the “Raw Signal” value [5] was 49925 and the Z-score [6] was -1.065.

For `C[C@@H](N)[C@H]1CC[C@H](C(=O)Nc2ccncc2)CC1.Cl.Cl` [Y-27632 dihydrochloride], the “Raw Signal” value [3] was 53228 and the Z-score [4] was -0.3938.

With `O=C(O)CN(CCN(CC(=O)O)CC(=O)O)CCN(CC(=O)O)CC(=O)O` [Diethylenetriaminepentaacetic acid] the “Raw Signal” value [3] was 53021 and the Z-score [4] was -0.4358.

In the case of `CN1CCN(c2nc3cc(C(F)(F)F)ccc3n3cccc23)CC1.O=C(O)/C=C\C(=O)O` [CGS-12066A maleate], the “Raw Signal” value [1] is reported as 58347 and the Z-score [2] is reported as 0.6458.

In the case of `CC(C)[C@H](NC(=O)OCc1ccccc1)C(=O)N[C@H](C=O)Cc1ccccc1` [MDL 28170] (Cbz-Val-Phe-aldehyde), the “Raw Signal” value [5] is reported as 65838 and the Z-score [8] is reported as 1.923.

`C=C(C)[C@H]1CN[C@H](C(=O)O)[C@H]1CC(=O)O` [Kainic acid] was tested, and the “Raw Signal” value was 54485 and the Z-score was 0.01537.

Picrotoxin showed a Z-score [6] of -0.5599.

With `COC1(C2=NCCN2)COc2ccccc2O1.Cl` (stereo not drawn) [RX 821002 hydrochloride] the “Raw Signal” value [3] was 56903 and the Z-score [7] was 0.1708.

In the case of `CCCN(CCC)CCc1ccc(O)c(O)c1` [Dipropyldopamine hydrobromide], the “Raw Signal” value [5] is reported as 52448 and the Z-score [6] is reported as -0.5522.

With `COc1cc(C(O)C(=O)O)ccc1O` (racemic) [(±)-Vanillylmandelic acid] the “Raw Signal” value [5] was 52849 and the Z-score [6] was -0.4708.

With `COc1ccc(C(=O)N2CCCC2=O)cc1` [Aniracetam] the “Raw Signal” value [3] was 56032 and the Z-score [4] was -0.3313.

Compound `C[N+]1(C)CCOC(O)(c2ccc(-c3ccc(C4(O)C[N+](C)(C)CCO4)cc3)cc2)C1` (stereo not drawn) [Hemicholinium-3] has a Z-score [4] of -0.115.

In the case of `CC(=O)OCC1=C(C(=O)O)N2C(=O)[C@@H](NC(=O)CSc3ccncc3)[C@H]2SC1` [Cephapirin sodium], the “Raw Signal” value [5] is reported as 53491 and the Z-score [6] is reported as -0.7789.

For `CN1C2CCC1CC(OC(=O)c1c[nH]c3ccccc13)C2.Cl` (stereo not drawn), the “Raw Signal” value [3] was 56078 and the Z-score [7] was 0.01053.

With `NNCc1cccc(O)c1` [3-Hydroxybenzylhydrazine dihydrochloride] the “Raw Signal” value [3] was 53590 and the Z-score [4] was -0.3203.

For `N=C(N)c1ccc(N)cc1` [4-Aminobenzamidine dihydrochloride], the “Raw Signal” value [5] was 52991 and the Z-score [6] was -0.8669.

For `NNCCc1ccccc1` [Phenelzine sulfate], the “Raw Signal” value [1] was 58733 and the Z-score [2] was 0.5263.

In the case of `CCN(CC)C(=O)N[C@H]1C[C@@H]2c3cccc4[nH]cc(c34)C[C@H]2N(C)C1` [R(+)-Terguride], the “Raw Signal” value [1] is reported as 59619 and the Z-score [2] is reported as 0.6985.

For `C[C@@H]1OC[C@H](C[N+](C)(C)C)O1.[I-]` [(+)-cis-Dioxolane iodide], the “Raw Signal” value [3] was 55108 and the Z-score [7] was -0.01199.

For `OC[C@H]1NC[C@@H](O)[C@@H]1O` [1,4-Dideoxy-1,4-imino-D-arabinitol], the “Raw Signal” value [3] was 54688 and the Z-score [4] was -0.09729.

For `Cl.Cl.Cn1cnc(CCN)c1` [1-Methylhistamine dihydrochloride], the “Raw Signal” value [3] was 52776 and the Z-score [4] was -0.2718.

With `COc1cc2c(c(OC)c1OC)-c1ccc(OC)c(=O)cc1[C@@H](NC(C)=O)CC2` [Colchicine] the “Raw Signal” value [3] was 58343 and the Z-score [7] was 0.07572.

For `CCCNC[C@H](O)COc1ccccc1C(=O)CCc1ccccc1.Cl` [(S)-(-)-propafenone hydrochloride], the “Raw Signal” value [5] was 52495 and the Z-score [6] was -0.6856.

In the case of `CN[C@H](CC(C)C)C(=O)N[C@H]1C(=O)N[C@@H](CC(N)=O)C(=O)N[C@H]2C(=O)N[C@H]3C(=O)N[C@H](C(=O)N[C@H](C(=O)O)c4cc(O)cc(O)c4-c4cc3ccc4O)[C@H](O)c3ccc(c(Cl)c3)Oc3cc2cc(c3O[C@@H]2O[C@H](CO)[C@@H](O)[C@H](O)[C@H]2O[C@H]2C[C@](C)(N)[C@H](O)[C@H](C)O2)Oc2ccc(cc2Cl)[C@H]1O.Cl`, the “Raw Signal” value [1] is reported as 61643 and the Z-score [2] is reported as 1.0917.

In the case of `Oc1cccc2c(O)nccc12` [1,5-Isoquinolinediol], the “Raw Signal” value [3] is reported as 54537 and the Z-score [7] is reported as 0.02411.

With `COCc1nc2c([nH]1)c(=O)n(C)c(=O)n2CC(C)C` the “Raw Signal” value [3] was 51997 and the Z-score [4] was -0.4027.

For `Nc1cc(N2CCCCC2)nc(N)[n+]1[O-]` [Minoxidil], the “Raw Signal” value [3] was 52091 and the Z-score [4] was -0.3869.

`CN1CCC(c2c[nH]c3ccc(O)cc23)CC1.O=C(O)/C=C\C(=O)O` [BRL 54443 maleate] was tested, and the “Raw Signal” value [5] was 53701 and the Z-score [6] was -0.7419.
